{
  "source": "patent US20030099708A1",
  "about": "“Printing or dispensing a suspension such as three-dimensional printing of dosage forms” (Therics, Inc, priority 2001, published 2003)",
  "origin": "cited, not measured here",
  "settings": "statement in words, no test described",
  "data": [
    {"smiles": "CC[C@@]1(O)C(=O)OCc2c1cc1n(c2=O)Cc2cc3ccccc3nc2-1", "note": "[camptothecin]", "values": [
      {"measurement": "solubility in water", "result": "substantially insoluble"}
    ]}
  ]
}
